The record followed here is ChEMBL document CHEMBL1201862, “PubChem BioAssay data set” (2004).

Common to all, as to experiment: NCI anticancer screen, dose series, 48 h
In experiment [1] the test system is SK-MEL-5.
Experiment [2] concerns IGROV-1.
The test system of experiment [3] is SNB-19.
Experiment [4] deals with SR.
The subject of experiment [5] is M14.
Experiment [6] concerns SNB-75.
Experiment [7] deals with HCT-116.
Experiment [8] deals with NCI-H226.
Experiment [9] has as its system RXF 393.
The test system of experiment [10] is UACC-257.
Experiment [11] deals with OVCAR-5.
Experiment [12] concerns MOLT-4.
The subject of experiment [13] is 786-0.
Experiment [14] relates to SW-620.
Experiment [15] concerns K562.
Experiment [16] deals with NCI-H460.
For experiment [17], the system named is LOX IMVI.
Experiment [18] relates to CCRF-CEM.

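Cells were grown in 96-well plates and exposed to each compound for 48 hours at five concentrations; endpoints were interpolated linearly between bracketing concentrations, or set to the highest concentration if not reached. Abbreviation: GI50, concentration required for 50% inhibition of growth.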 Active and inactive are the calls of the source. No stated cut-off is given here; in the data, active = GI50 up to about 1.1 µM and inactive = higher.

For `CC(C)OCN1COCN/C1=N/C#N`, the GI50 in [1], in experiment [2], in experiment [3], in experiment [4], in [5] and in experiment [6] was > 100 µM (inactive) in each case. The GI50 in experiment [7], in experiment [8], in experiment [9], in [10], in experiment [11] and in experiment [12] was > 100 µM (inactive) in each case. The GI50 in experiment [13] is 98.6 µM (inactive); in experiment [14] it was 18.3 µM (inactive); in experiment [15], > 100 µM (inactive); in [16], > 100 µM (inactive).
In the case of `N#CC1C(=O)NC(=O)C1=O` (stereo unspecified), the GI50 in experiment [1], in experiment [2], in experiment [3], in [17], in experiment [5] and in experiment [6] was > 100 µM (inactive) in each case. Further, the GI50 in experiment [7], in experiment [8], in [9], in experiment [10], in [11] and in [12] was > 100 µM (inactive) each time. In addition, the GI50 in experiment [13], in [14], in [15] and in experiment [16] was > 100 µM (inactive) throughout.
On to `Cc1cc(NS(=O)(=O)c2ccc(NC(=O)c3cccc4c(=O)c5ccccc5[nH]c34)cc2)no1`, for which the GI50 was 40.8 µM (inactive) in [1]; 40.5 µM (inactive) in [2]; 36.2 µM (inactive) in experiment [3]; 31.4 µM (inactive) in [17]; 28.2 µM (inactive) in [4]; 23.1 µM (inactive) in experiment [6]. The GI50 was 36.9 µM (inactive) in experiment [7]; 41.9 µM (inactive) in [8]; 32.6 µM (inactive) in [18]; 87.7 µM (inactive) in experiment [10]; 94.6 µM (inactive) in [11]; 39.4 µM (inactive) in experiment [12]. Also, the GI50 in experiment [13] was 10.2 µM (inactive); in experiment [14], 55.6 µM (inactive); in experiment [15] it was 36.1 µM (inactive); in experiment [16] it was 93.3 µM (inactive).
For the compound `CCCCN/C(=N/C#N)NCc1ccccc1`, the GI50 in experiment [1], in [2], in experiment [3], in experiment [17], in experiment [4] and in experiment [5] was > 100 µM (inactive) throughout. Besides, the GI50 in [6] was 42.8 µM (inactive); in experiment [7], > 100 µM (inactive); in experiment [8], > 100 µM (inactive); in experiment [18], > 100 µM (inactive); in experiment [11], > 100 µM (inactive); in [12] it was > 100 µM (inactive). In addition, the GI50 in [13], in experiment [14] and in experiment [16] was > 100 µM (inactive) each time.
As for `O=C1CCC2CCOc3ccc(O)c1c32` (stereo unspecified), the GI50 in experiment [1], in experiment [2], in experiment [3], in experiment [4], in [5] and in experiment [6] was > 100 µM (inactive) each time. The GI50 in [7], in [8], in experiment [9], in experiment [18], in experiment [10] and in experiment [11] was > 100 µM (inactive) each time. The GI50 in [12], in [13], in experiment [15] and in experiment [16] was > 100 µM (inactive) throughout.
Take `CCCN(CCC)C(=O)c1nc(N)nc(-c2ccc(OC)cc2)c1-c1ccc(OC)cc1`: the GI50 in [1] is > 100 µM (inactive); in experiment [2] it was > 100 µM (inactive); in [3], > 100 µM (inactive); in experiment [5] it was > 100 µM (inactive); in experiment [6] it was 37.5 µM (inactive); in [7], > 100 µM (inactive). Further, the GI50 in [8] was > 100 µM (inactive); in experiment [18], > 100 µM (inactive); in experiment [10] it was > 100 µM (inactive); in experiment [11], > 100 µM (inactive); in [12], 11.2 µM (inactive); in experiment [13] it was > 100 µM (inactive). Also, the GI50 is > 100 µM (inactive) in experiment [14], 84.1 µM (inactive) in experiment [15] and > 100 µM (inactive) in experiment [16].
On to `O=C1[C@H]2ON(c3ccccc3)C(c3ccco3)[C@H]2C(=O)N1c1ccc(Cc2ccc(N3C(=O)[C@@H]4ON(c5ccccc5)C(c5ccco5)[C@@H]4C3=O)cc2)cc1` (stereo partly specified), for which the GI50 in [1] was > 100 µM (inactive); in experiment [2], > 100 µM (inactive); in [17], > 100 µM (inactive); in [5] it was 82.2 µM (inactive); in [6] it was > 100 µM (inactive); in experiment [8], > 100 µM (inactive). Further, the GI50 in experiment [9] is > 100 µM (inactive); in [18], > 100 µM (inactive); in [10], 47.5 µM (inactive); in experiment [11] it was > 100 µM (inactive); in experiment [12] it was > 100 µM (inactive); in experiment [13] it was > 100 µM (inactive). Besides, the GI50 in experiment [14], in experiment [15] and in [16] was > 100 µM (inactive) throughout.
On to `Cc1cc(N(CCC#N)CCC#N)ccc1/N=N/c1ccc(C(=O)O)cc1`, for which the GI50 in experiment [1] is > 100 µM (inactive); in [2], > 100 µM (inactive); in experiment [17], > 100 µM (inactive); in experiment [5], > 100 µM (inactive); in experiment [6] it was 36.7 µM (inactive); in experiment [8], > 100 µM (inactive). For the same compound, the GI50 in experiment [9], in [10], in [11], in experiment [12], in experiment [13] and in experiment [14] was > 100 µM (inactive) in each case.
With `CCOC(=O)C(=O)Nc1nc2c(s1)C(=O)c1ccccc1C2=O`, the GI50 is 14.3 µM (inactive) in experiment [1]; 19.1 µM (inactive) in [2]; 17.9 µM (inactive) in experiment [3]; 3.43 µM (inactive) in [4]; 15.7 µM (inactive) in experiment [5]; 16.2 µM (inactive) in [6]. The GI50 in experiment [7] was 13.3 µM (inactive); in experiment [8], 18.2 µM (inactive); in experiment [18], 5.05 µM (inactive); in experiment [10], 16.1 µM (inactive); in experiment [11], 27.7 µM (inactive); in [12], 2.32 µM (inactive). Also, the GI50 was 17.4 µM (inactive) in experiment [13], 13.4 µM (inactive) in experiment [14], 6.03 µM (inactive) in [15] and 19.2 µM (inactive) in [16].
Take `COC(=O)[C@@]12OC[C@]34C([C@@H](O)C1O)[C@@]1(C)CC(=O)C(O)=C(C)C1C[C@H]3OC(=O)[C@H](OC(=O)CC(C)C(F)(F)F)[C@H]42` (stereo partly specified): the GI50 in experiment [1] was 0.0125 µM (active); in experiment [2], 0.0168 µM (active); in experiment [3] it was 0.00802 µM (active); in [4] it was 0.00429 µM (active); in [5] it was 0.0347 µM (active); in experiment [6] it was 0.0445 µM (active). The GI50 is 0.0101 µM (active) in experiment [7]; 0.0108 µM (active) in experiment [8]; 0.0912 µM (active) in experiment [9]; 0.012 µM (active) in [18]; 0.0759 µM (active) in [10]; 0.146 µM (active) in [11]. Besides, the GI50 in [12] is 0.0047 µM (active); in [13] it was 0.0646 µM (active); in experiment [14], 0.022 µM (active); in [15], 0.0157 µM (active); in experiment [16], 0.00542 µM (active).
As for `O=CN/C=C/c1ccc(O)c(O)c1`, the GI50 is > 100 µM (inactive) in experiment [2]; > 100 µM (inactive) in experiment [3]; > 100 µM (inactive) in experiment [17]; > 100 µM (inactive) in [5]; 59.8 µM (inactive) in [6]; > 100 µM (inactive) in experiment [7]. Besides, the GI50 in experiment [8], in experiment [9], in experiment [18], in experiment [10], in experiment [11] and in experiment [12] was > 100 µM (inactive) in each case. For the same compound, the GI50 in experiment [13], in experiment [14], in [15] and in experiment [16] was > 100 µM (inactive) each time.
In the case of `O=c1cc(-c2ccc(O)cc2)oc2cc(O)cc(O)c12` [APIGENIN], the GI50 in [1] was 25.4 µM (inactive); in experiment [2] it was 28.6 µM (inactive); in [3], 29.7 µM (inactive); in experiment [17] it was 21.4 µM (inactive); in experiment [4], 33.6 µM (inactive); in experiment [5] it was 44.4 µM (inactive). For the same compound, the GI50 in experiment [6] was 21.6 µM (inactive); in experiment [7], 24.2 µM (inactive); in experiment [8], 24.7 µM (inactive); in experiment [18], 20.4 µM (inactive); in [10], 30.8 µM (inactive); in experiment [11], 30.5 µM (inactive). In addition, the GI50 in [12] is 23 µM (inactive); in experiment [13], 34.3 µM (inactive); in [15], 32.7 µM (inactive); in [16], 31.4 µM (inactive).
